pKi: −log10 of the molar value. Structures can show the parent of a compound that is named as a salt.
target: T1, histamine H3 receptor (Homo sapiens, UniProt Q9Y5N1); assay: Histamine H3 functional antagonist assay ([35S]GTPγS, SPA, membranes of CHO K1 cells expressing the receptor); format: biochemical; settings: histamine-stimulated GTPγS binding, membranes with human H3
T1 construct: expressed in transfected cells; host or cells: CHO K1 cells carrying pSwitch, transfected with pGeneH3 and induced with mifepristone; clone 3H3; membranes
Excerpt: A membrane preparation containing histamine H3 receptors may be prepared in accordance with the following procedures:
(i) Generation of Histamine H3 Cell Line
DNA encoding the human histamine H3 gene (Huvar, A. et al. (1999) Mol. Pharmacol. 55(6), 1101-1107) was cloned into a holding vector, pCDNA3.1 TOPO (InVitrogen) and its cDNA was isolated from this vector by restriction digestion of plasmid DNA with the enzymes BamH1 and Not-1 and ligated into the inducible expression vector pGene (InVitrogen) digested with the same enzymes. The GeneSwitch™ system (a system where in transgene expression is switched off in the absence of an inducer and switched on in the presence of an inducer) was performed as described in U.S. Pat. Nos. 5,364,791; 5,874,534; and 5,935,934. Ligated DNA was transformed into competent DH5α E. coli host bacterial cells and plated onto Luria Broth (LB) agar containing Zeocin™ (an antibiotic which allows the selection of cells expressing the sh ble gene which is present on pGene and pSwitch) at 50 μg ml^−1. Colonies containing the re-ligated plasmid were identified by restriction analysis. DNA for transfection into mammalian cells was prepared from 250 ml cultures of the host bacterium containing the pGeneH3 plasmid and isolated using a DNA preparation kit (Qiagen Midi-Prep) as per manufacturers guidelines (Qiagen).
CHO K1 cells previously transfected with the pSwitch regulatory plasmid (InVitrogen) were seeded at 2×10e6cells per T75 flask in Complete Medium, containing Hams F12 (GIBCOBRL, Life Technologies) medium supplemented with 10% v/v dialysed foetal bovine serum, L-glutamine, and hygromycin ([…]), 24 hours prior to use. Plasmid DNA was transfected into the cells using Lipofectamine plus according to the manufacturers guidelines (InVitrogen). 48 hours post transfection cells were placed into complete medium supplemented with […] Zeocin™.
10-14 days post selection 10 nM Mifepristone (InVitrogen), was added to the culture medium to induce the expression of the receptor. 18 hours post induction cells were detached from the flask using ethylenediamine tetra-acetic acid (EDTA; 1:5000; InVitrogen), following several washes with phosphate buffered saline pH 7.4and resuspended in Sorting Medium containing Minimum Essential Medium (MEM), without phenol red, and supplemented with Earles salts and 3% Foetal Clone II (Hyclone). Approximately 1×10e7 cells were examined for receptor expression by staining with a rabbit polyclonal antibody, 4a, raised against the N-terminal domain of the histamine H3 receptor, incubated on ice for 60 minutes, followed by two washes in sorting medium. Receptor bound antibody was detected by incubation of the cells for 60 minutes on ice with a goat anti rabbit antibody, conjugated with Alexa 488 fluorescence marker (Molecular Probes). Following two further washes with Sorting Medium, cells were filtered through a 50 μm Filcon™ (BD Biosciences) and then analysed on a FACS Vantage SE Flow Cytometer fitted with an Automatic Cell Deposition Unit. Control cells were non-induced cells treated in a similar manner. Positively stained cells were sorted as single cells into 96-well plates, containing Complete Medium containing 500 μg ml^−1 Zeocin™ and allowed to expand before reanalysis for receptor expression via antibody and ligand binding studies. One clone, 3H3, was selected for membrane preparation.
(ii) Membrane Preparation from Cultured Cells
All steps of the protocol are carried out at 4° C. and with pre-cooled reagents. The cell pellet is resuspended in 10 volumes of buffer A2 containing 50 mM N-2-hydroxyethylpiperazine-N′-2-ethanesulfonic acid (HEPES) (pH 7.40) supplemented with […] leupeptin (acetyl-leucyl-leucyl-arginal; Sigma L2884), 25 μg/ml bacitracin (Sigma B0125), 1 mM ethylenediamine tetra-acetic acid (EDTA), 1 mM phenylmethylsulfonyl fluoride (PMSF) and 2×10e-6M pepstain A (Sigma). […]

T1 sequence (Q9Y5N1 whole entry): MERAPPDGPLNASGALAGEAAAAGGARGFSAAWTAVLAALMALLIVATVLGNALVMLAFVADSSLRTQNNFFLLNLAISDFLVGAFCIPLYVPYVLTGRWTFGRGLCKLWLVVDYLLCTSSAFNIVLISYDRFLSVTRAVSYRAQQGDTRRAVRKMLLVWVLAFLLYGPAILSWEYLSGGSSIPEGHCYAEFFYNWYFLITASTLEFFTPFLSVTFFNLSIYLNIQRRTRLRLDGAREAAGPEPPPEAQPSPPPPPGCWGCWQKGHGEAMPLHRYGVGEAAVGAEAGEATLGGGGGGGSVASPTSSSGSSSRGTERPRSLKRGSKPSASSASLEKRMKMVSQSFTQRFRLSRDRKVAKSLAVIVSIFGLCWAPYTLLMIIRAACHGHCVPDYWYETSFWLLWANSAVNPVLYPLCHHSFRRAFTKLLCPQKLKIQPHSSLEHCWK

Question: How did the pKi turn out when `O=C(c1ccc(N2CCC(OC3CCN(C4CCC4)CC3)CC2)cc1)N1CCOCC1` [Example E5, 4-[(4-{4-[(1-Cyclobutyl-4-piperidinyl)oxy]-1-piperidinyl}phenyl)carbonyl]morpholine hydrochloride] was run?
Answer: ≥ 9.00

Question: How did the pKi turn out when `CC(C)N1CCC(OC2CCN(c3ccc(C#N)nc3)CC2)CC1` [Example E80, 5-(4-{[1-(1-Methylethyl)-4-piperidinyl]oxy)-1-piperidinyl)-2-pyridinecarbonitrile hydrochloride] was run?
Answer: ≥ 9.00

Question: How did the pKi turn out when `CC(=O)c1ccc(N2CCC(OC3CCN(C(C)C)CC3)CC2)cc1` [Example E97, 1-[4-(4-{[1-(Methylethyl)-4-piperidinyl]oxy}-1-piperidinyl)phenyl]ethanone] was run?
Answer: ≥ 9.00

Question: `CC(=O)c1ccc(N2CCC(OC3CCN(C4CCC4)CC3)CC2)c(F)c1` [Example E109, 1-(4-{4-[(1-Cyclobutyl-4-piperidinyl)oxy]-1-piperidinyl}-3-fluorophenyl)ethanone] was tested. Which pKi did it give?
Answer: ≥ 9.00

Question: How did the pKi turn out when `CC(C)N1CCC(OC2CCN(c3cccc(C(=O)N4CCOCC4)n3)CC2)CC1` [Example E61] was run?
Answer: > 8.00

Question: `CCNC(=O)c1cnc(N2CCC(OC3CCN(C4CCC4)CC3)CC2)cn1` [Example E71] was tested. Which pKi did it give?
Answer: ≥ 9.00

Question: `CCC(=O)c1ccc(N2CCC(OC3CCN(C4CCC4)CC3)CC2)cc1` [Example E90, 1-(4-{4-[(1-Cyclobutyl-4-piperidinyl)oxy]-1-piperidinyl}phenyl)-1-propanone] was tested. Which pKi did it give?
Answer: ≥ 9.00

Question: How did the pKi turn out when `CC(C)N1CCC(OC2CCN(c3ccc(C(=O)NC4CCCC4)nc3)CC2)CC1` [Example E45] was run?
Answer: ≥ 9.00

Question: With `N#Cc1ccc(N2CCC(OC3CCN(C4CCC4)CC3)CC2)cc1` [Example E3, 4-{4-[(1-Cyclobutyl-4-piperidinyl)oxy]-1-piperidinyl}benzonitrile hydrochloride] as the compound, how does the pKi read?
Answer: ≥ 9.00

Question: How did the pKi turn out when `O=C(NC1CCC1)c1cnc(N2CCC(OC3CCN(C4CCC4)CC3)CC2)cn1` [Example E74] was run?
Answer: ≥ 9.00

Question: How did the pKi turn out when `Cc1noc(-c2ccc(N3CCC(OC4CCN(C5CCC5)CC4)CC3)cc2)n1` [Example E28] was run?
Answer: ≥ 9.00

Question: `CC(C)N1CCC(OC2CCN(c3ccc(C(F)(F)F)nn3)CC2)CC1` [Example E83, 3-(4-{[1-(1-Methylethyl)-4-piperidinyl]oxy}-1-piperidinyl)-6-(trifluoromethyl)pyridazine] was tested. Which pKi did it give?
Answer: > 8.00

Question: How did the pKi turn out when `Cc1nc(-c2ccc(N3CCC(OC4CCN(C5CCC5)CC4)CC3)cc2)no1` [Example E25] was run?
Answer: ≥ 9.00

Question: `Cc1cc(-c2ccc(N3CCC(OC4CCN(C5CCC5)CC4)CC3)cc2)on1` [Example E24] was tested. Which pKi did it give?
Answer: ≥ 9.00

Question: `Cc1noc(-c2ccc(N3CCC(OC4CCN(C(C)C)CC4)CC3)cc2F)n1` [Example E113, 1-[3-Fluoro-4-(3-methyl-1,2,4-oxadiazol-5-yl)phenyl]-4-{[1-(1-methylethyl)-4-piperidinyl]oxy}piperidine hydrochloride] was tested. Which pKi did it give?
Answer: ≥ 9.00

Question: `O=C(NCCCCl)c1ccc(N2CCC(OC3CCN(C4CCC4)CC3)CC2)cc1` [Example E15, N-(3-Chloropropyl)-4-{4-[(1-cyclobutyl-4-piperidinyl)oxy]-1-piperidinyl}benzamide hydrochloride] was tested. Which pKi did it give?
Answer: ≥ 9.00

Question: How did the pKi turn out when `CNC(=O)c1ccc(N2CCC(OC3CCN(C4CCC4)CC3)CC2)cc1` [Example E6, 4-[4-[(1-Cyclobutyl-4-piperidinyl)oxy]-1-piperidinyl)-N-methylbenzamide hydrochloride] was run?
Answer: ≥ 9.00

Question: `CC(C)N1CCC(OC2CCN(c3cccc(C(=O)N4CCCC4)n3)CC2)CC1` [Example E60] was tested. Which pKi did it give?
Answer: > 8.00

Question: How did the pKi turn out when `CC(=O)c1ccc(N2CCC(OC3CCN(C4CCC4)CC3)CC2)nc1` [Example E93, 1-(6-{4-[(1-Cyclobutyl-4-piperidinyl)oxy]-1-piperidinyl}-3-pyridinyl)ethanone] was run?
Answer: ≥ 9.00

Question: `O=C(c1ccc(N2CCC(OC3CCN(C4CCC4)CC3)CC2)cc1)C1CC1` [Example E91] was tested. Which pKi did it give?
Answer: ≥ 9.00

Question: How did the pKi turn out when `O=C(c1ccc(N2CCC(OC3CCN(C4CCC4)CC3)CC2)nc1)N1CCCC1` [Example E56] was run?
Answer: ≥ 9.00

Question: `CN(C)C(=O)c1ccc(N2CCC(OC3CCN(C4CCC4)CC3)CC2)nc1` [Example E55] was tested. Which pKi did it give?
Answer: ≥ 9.00

Question: `O=C(NC1CCCC1)c1ccc(N2CCC(OC3CCN(C4CCC4)CC3)CC2)cn1` [Example E46] was tested. Which pKi did it give?
Answer: ≥ 9.00

Question: With `CC(C)N1CCC(OC2CCN(c3ccc(C(=O)N4CCOCC4)nc3)CC2)CC1` [Example E36] as the compound, how does the pKi read?
Answer: ≥ 9.00

Question: With `CNC(=O)c1ccc(N2CCC(OC3CCN(C4CCC4)CC3)CC2)cn1` [Example E38, 5-{4-[(1-Cyclobutyl-4-piperidinyl)oxy]-1-piperidinyl}-N-methyl-2-pyridinecarboxamide hydrochloride] as the compound, how does the pKi read?
Answer: > 9.50

Question: With `Cc1noc(-c2ccc(N3CCC(OC4CCN(C5CCC5)CC4)CC3)cc2F)n1` [Example E110, 1-Cyclobutyl-4-({1-[3-fluoro-4-(3-methyl-1,2,4-oxadiazol-5-yl)phenyl]-4-piperidinyl}oxy)piperidine] as the compound, how does the pKi read?
Answer: ≥ 9.00

Question: `Cc1ccc2cc(N3CCC(OC4CCN(C5CCC5)CC4)CC3)ccc2n1` [Example E94, 6-{4-[(1-Cyclobutyl-4-piperidinyl)oxy]-1-piperidinyl}-2-methylquinoline hydrochloride] was tested. Which pKi did it give?
Answer: ≥ 9.00

Question: `CNC(=O)c1ccc(N2CCC(OC3CCN(C(C)C)CC3)CC2)nc1` [Example E50] was tested. Which pKi did it give?
Answer: > 8.00

Question: How did the pKi turn out when `CCNC(=O)c1ccc(N2CCC(OC3CCN(C(C)C)CC3)CC2)cn1` [Example E39] was run?
Answer: ≥ 9.00

Question: `CC(C)N1CCC(OC2CCN(c3ccc(-c4cnco4)cc3)CC2)CC1` [Example E30] was tested. Which pKi did it give?
Answer: ≥ 9.00

Question: How did the pKi turn out when `CC(C)N1CCC(OC2CCN(c3ccc(C(=O)N4CCCC4)cn3)CC2)CC1` [Example E52] was run?
Answer: > 8.00

Question: `CC(C)N1CCC(OC2CCN(c3ccc(C(=O)N(C)C)cc3)CC2)CC1` [Example E12] was tested. Which pKi did it give?
Answer: ≥ 9.00

Question: `CC(C)N1CCC(OC2CCN(c3ccc(C(=O)N4CCCC4)nc3)CC2)CC1` [Example E33] was tested. Which pKi did it give?
Answer: ≥ 9.00

Question: `CCCNC(=O)c1cnc(N2CCC(OC3CCN(C(C)C)CC3)CC2)cn1` [Example E77] was tested. Which pKi did it give?
Answer: ≥ 9.00

Question: How did the pKi turn out when `N#Cc1ccc(N2CCC(OC3CCN(C4CCC4)CC3)CC2)cn1` [Example E47, 5-{4-[(1-Cyclobutyl-4-piperidinyl)oxy]-1-piperidinyl}-2-pyridinecarbonitrile hydrochloride] was run?
Answer: ≥ 9.00

Question: `FC(F)(F)c1ccc(N2CCC(OC3CCN(C4CCC4)CC3)CC2)cn1` [Example E49, 5-{4-[(1-Cyclobutyl-4-piperidinyl)oxy]-1-piperidinyl}-2-(trifluoromethyl)pyridine hydrochloride] was tested. Which pKi did it give?
Answer: ≥ 9.00

Question: `CNC(=O)c1cnc(N2CCC(OC3CCN(C(C)C)CC3)CC2)cn1` [Example E75] was tested. Which pKi did it give?
Answer: ≥ 9.00

Question: With `CC(C)N1CCC(OC2CCN(c3ccc(C(=O)N4CCOCC4)cn3)CC2)CC1` [Example E53] as the compound, how does the pKi read?
Answer: > 8.00

Question: `CC(C)N1CCC(OC2CCN(c3cnc(C(F)(F)F)nc3)CC2)CC1` [Example E89, 5-(4-{[1-(1-Methylethyl)-4-piperidinyl]oxy}-1 piperidinyl)-2-(trifluoromethyl) pyrimidine] was tested. Which pKi did it give?
Answer: ≥ 9.00

Question: How did the pKi turn out when `c1coc(-c2ccc(N3CCC(OC4CCN(C5CCC5)CC4)CC3)cc2)n1` [Example E21] was run?
Answer: ≥ 9.00

Question: `CC(C)N1CCC(OC2CCN(c3ccc(C(=O)OC(C)(C)C)nc3)CC2)CC1` [Example E95, 1,1-Dimethylethyl 5-(4-{[1-(1-methylethyl)-4-piperidinyl]oxy}-1-piperidinyl)-2-pyridinecarboxylate] was tested. Which pKi did it give?
Answer: ≥ 9.00

Question: `CNC(=O)c1cnc(N2CCC(OC3CCN(C4CCC4)CC3)CC2)cn1` [Example E70, 5-(4-[(1-Cyclobutyl-4-piperidinyl)oxy]-1-piperidinyl}-N-methyl-2-pyrazinecarboxamide butanedioate] was tested. Which pKi did it give?
Answer: ≥ 9.00

Reference: US20060247227A1, “Substituted piperidines as histamine h3 receptor ligands” (priority 2003, published 2006)
